Positions count from the first letter of the chain named. Structures can show the parent of a compound that is named as a salt. Where two headings read alike, the source gives them in different places.
Columns and labels:
LNCap cells = assay: Cell viability assay (CellTiterGlo); type: cell-based; conditions: Homo sapiens, 144 h
22Rv1 cells = assay: Cell viability assay (CellTiterGlo); conditions: Homo sapiens, 22Rv1, 144 h, read-out: 22RV1 (IC50, nM)
Protocol: (§1) Cell viability assay: LNCap, 22Rv1, MCF7, MDAMB361, T47D, and IEC6 cells were seeded at a density of 500-2000 cells/well in 96 well plates, and a ‘T0’ (timepoint 0) was included along with the assay plate. The plates were then incubated at 37° C., 5% CO2 in a cell culture incubator overnight. On the next day, the ‘T0’ plate was assayed using CellTiterGlo (Promega, Inc) according to the manufacturer's instructions. The appropriate compounds were diluted in DMSO and added to the assay plate (final DMSO concentration of 0.1-0.2%) on the next day. The assay plates were incubated for 6 days at 37° C., 5% CO2. After the incubation period, the plates were assayed using CellTiterGlo (Promega, Inc) according to the manufacturer's instructions and luminescence was read on the En Vision plate reader. […] GraphPadPrism was used to analyze the data and determine GI50/IC50 values.

[1] = target: T1, AR (cytosol from LnCaP cells) (Homo sapiens, UniProt P10275, T878A); assay: AR binding assay (3H-R1881 displacement)
T1 sequence (P10275 1-920 T878A): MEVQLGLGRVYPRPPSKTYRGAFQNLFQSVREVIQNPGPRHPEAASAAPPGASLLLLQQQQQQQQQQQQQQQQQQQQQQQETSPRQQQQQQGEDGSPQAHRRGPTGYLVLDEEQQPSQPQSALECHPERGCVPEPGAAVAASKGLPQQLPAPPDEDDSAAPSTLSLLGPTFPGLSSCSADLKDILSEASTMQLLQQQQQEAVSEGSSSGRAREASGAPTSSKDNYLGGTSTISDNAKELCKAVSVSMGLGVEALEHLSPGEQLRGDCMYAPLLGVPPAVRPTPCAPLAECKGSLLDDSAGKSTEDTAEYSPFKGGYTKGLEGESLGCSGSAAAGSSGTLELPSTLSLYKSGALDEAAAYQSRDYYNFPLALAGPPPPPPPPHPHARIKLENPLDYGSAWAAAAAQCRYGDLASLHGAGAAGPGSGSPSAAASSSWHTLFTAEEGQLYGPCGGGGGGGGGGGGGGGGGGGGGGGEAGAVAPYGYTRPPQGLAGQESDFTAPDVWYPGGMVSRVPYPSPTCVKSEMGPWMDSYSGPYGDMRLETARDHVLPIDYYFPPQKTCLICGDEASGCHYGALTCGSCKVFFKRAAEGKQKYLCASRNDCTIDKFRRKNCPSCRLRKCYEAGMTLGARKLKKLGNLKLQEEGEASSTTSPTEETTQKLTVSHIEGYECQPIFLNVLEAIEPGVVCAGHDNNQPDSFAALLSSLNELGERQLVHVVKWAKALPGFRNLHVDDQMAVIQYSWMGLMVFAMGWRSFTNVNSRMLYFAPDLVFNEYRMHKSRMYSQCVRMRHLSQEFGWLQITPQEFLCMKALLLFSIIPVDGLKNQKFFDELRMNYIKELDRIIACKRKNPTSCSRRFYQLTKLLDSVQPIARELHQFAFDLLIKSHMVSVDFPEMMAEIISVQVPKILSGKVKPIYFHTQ
Protocol: The plate was then centrifuged at 3000 rpm for 30 minutes at 4° C.

[2] = target: T2, full-length androgen receptor (HEK293 cells stably expressing) (Homo sapiens, UniProt P10275); assay: AR antagonism assay (luciferase reporter)
T2 sequence (P10275 1-920): T1 sequence (P10275 1-920 T878A) with A878T
Protocol: AR antagonism assay: To evaluate AR antagonist activity, test compound was added to the assay plate (top dose 10 μM, 3 fold serial dilution, 10 point dose response). HEK293 cells stably expressing the full-length androgen receptor were seeded at a density of 20000 cells/well in the assay plate. The assay plate was then incubated at room temperature for 10 minutes and at 37° C. 5% CO2 for 20 minutes. Testosterone was added to the assay plate at 1 nM final concentration and the assay plate incubated at 37° C., 5% CO2 for 20 h. […] Steady-glo was added to the assay plate and mixed at room temperature for 20 minutes on an orbital shaker, before reading out on the En Vision plate reader.

[3] = target: T3, ligand binding domain of the glucocorticoid receptor (HEK293 cells stably expressing) (Homo sapiens, UniProt P04150); assay: GR antagonism assay (luciferase reporter)
T3 sequence (P04150 524-758 limits assumed): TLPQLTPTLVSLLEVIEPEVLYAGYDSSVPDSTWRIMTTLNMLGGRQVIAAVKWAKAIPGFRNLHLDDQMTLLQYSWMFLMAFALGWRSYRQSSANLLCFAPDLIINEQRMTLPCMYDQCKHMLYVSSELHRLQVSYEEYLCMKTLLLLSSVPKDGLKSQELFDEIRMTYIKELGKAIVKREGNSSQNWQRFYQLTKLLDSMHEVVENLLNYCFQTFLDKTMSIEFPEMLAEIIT

[4] = target: T4, GR (cytosol from IM-9 cells) (Homo sapiens, UniProt P04150); assay: GR binding assay (3H-Dexamethasone displacement)
T4 sequence (P04150 1-777): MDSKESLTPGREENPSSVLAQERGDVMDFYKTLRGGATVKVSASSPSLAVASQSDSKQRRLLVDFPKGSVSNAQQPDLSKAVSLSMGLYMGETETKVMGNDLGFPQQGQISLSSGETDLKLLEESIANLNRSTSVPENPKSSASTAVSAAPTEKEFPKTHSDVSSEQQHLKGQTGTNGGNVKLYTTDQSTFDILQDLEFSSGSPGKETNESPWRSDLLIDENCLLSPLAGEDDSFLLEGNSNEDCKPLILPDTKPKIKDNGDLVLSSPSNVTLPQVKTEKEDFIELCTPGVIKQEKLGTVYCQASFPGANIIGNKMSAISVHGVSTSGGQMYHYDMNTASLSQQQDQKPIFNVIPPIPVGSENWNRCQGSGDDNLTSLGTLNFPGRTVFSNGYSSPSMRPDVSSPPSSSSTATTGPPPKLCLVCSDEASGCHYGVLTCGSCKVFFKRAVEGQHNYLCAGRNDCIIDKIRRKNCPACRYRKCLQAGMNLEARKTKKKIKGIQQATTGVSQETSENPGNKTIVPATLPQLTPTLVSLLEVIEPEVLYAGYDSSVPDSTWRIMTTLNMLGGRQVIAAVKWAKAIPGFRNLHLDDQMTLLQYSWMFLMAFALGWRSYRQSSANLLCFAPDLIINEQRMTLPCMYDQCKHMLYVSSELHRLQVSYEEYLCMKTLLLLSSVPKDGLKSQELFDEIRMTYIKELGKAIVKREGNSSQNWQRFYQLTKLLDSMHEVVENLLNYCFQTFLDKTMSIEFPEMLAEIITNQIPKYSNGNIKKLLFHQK

IEC6 cells = assay: Cell viability assay (CellTiterGlo); conditions: Rattus norvegicus, IEC-6, 144 h, read-out: IEC-6 (IC50, nM)
Protocol: as §1

[5] = 6 days incubation, CellTiterGlo, read-out: LNCap (IC50)

Row | Structure (SMILES) | IC50 (LNCap cells; [5]) | IC50 (22Rv1 cells) | IC50 [1] | IC50 [2] | IC50 [3] | IC50 [4] | IC50 (LNCap cells; read-out: LNCap (IC50, nM)) | IC50 (IEC6 cells)
1 | CC[C@@]1(OC(=O)N2CCN(CC3CCN(c4ccc(C(=O)N[C@H]5CC[C@H](Oc6ccc(C#N)c(Cl)c6C)CC5)nn4)CC3)CC2)C(=O)OCc2c1cc1n(c2=O)Cc2cc3cc(OC)ccc3nc2-1 [Compound 23, (S)-4-Ethyl-9-methoxy-3,14-dioxo-3,4,12,14-tetrahydro-1H-pyrano[3′,4′:6,7]indolizino[1,2-b]quinolin-4-yl 4-((1-(6-(((1r,4r)-4-(3-chloro-4-cyano-2-methylphenoxy)cyclohexyl)carbamoyl)pyridazin-3-yl)piperidin-4-yl)methyl)piperazine-1-carboxylate] | 10 to 100 nM | 101 to 1000 nM | 10 to 100 nM | > 1000 nM | > 1000 nM | > 1000 nM | – | –
2 | CC[C@@]1(O)C(=O)OCc2c1cc1n(c2=O)Cc2cc3c(CN4CCN(C(=O)C5CCN(c6ccc(C(=O)N[C@H]7CC[C@H](Oc8ccc(C#N)c(Cl)c8C)CC7)nn6)CC5)CC4)c(O)ccc3nc2-1 [Compound 25, N-((1r,4r)-4-(3-Chloro-4-cyano-2-methylphenoxy)cyclohexyl)-6-(4-(4-(((S)-4-ethyl-4,9-dihydroxy-3,14-dioxo-3,4,12,14-tetrahydro-1H-pyrano[3′,4′:6,7]indolizino[1,2-b]quinolin-10-yl)methyl)piperazine-1-carbonyl)piperidin-1-yl)pyridazine-3-carboxamide] | < 10 nM | 10 to 100 nM | < 10 nM | > 1000 nM | > 1000 nM | > 1000 nM | – | –
3 | CC[C@@]1(O)C(=O)OCc2c1cc1n(c2=O)Cc2cc3c(CN(C)C)c(OC(=O)N4CCN(CCCCCCN(C)C5CCN(c6ccc(C(=O)N[C@H]7CC[C@H](Oc8ccc(C#N)c(Cl)c8C)CC7)nn6)CC5)CC4)ccc3nc2-1 [Compound No. 22, (S)-10-((Dimethylamino)methyl)-4-ethyl-4-hydroxy-3,14-dioxo-3,4,12,14-tetrahydro-1H-pyrano[3′,4′:6,7]indolizino[1,2-b]quinolin-9-yl 4-(6-((1-(6-(((1r,4r)-4-(3-chloro-4-cyano-2-methylphenoxy)-cyclohexyl)carbamoyl)pyridazin-3-yl)piperidin-4-yl)(methyl)amino)hexyl)piperazine-1-carboxylate Formate] | – | 101 to 1000 nM | < 10 nM | 101 to 1000 nM | 101 to 1000 nM | 101 to 1000 nM | 10 to 100 nM | –
4 | CC[C@@]1(O)C(=O)OCc2c1cc1n(c2=O)Cc2cc3c(CN(C)C)c(OC(=O)N4CCN(CCCCCCO[C@H]5CC[C@H]6[C@@H]7CCC8=CC(=O)CCC8=C7CC[C@]56C)CC4)ccc3nc2-1 [Compound 45, (S)-10-((dimethylamino)methyl)-4-ethyl-4-hydroxy-3,14-dioxo-3,4,12,14-tetrahydro-1H-pyrano[3′,4′:6,7]indolizino[1,2-b]quinolin-9-yl 4-(6-(((8S,13S,14S,17S)-13-methyl-3-oxo-2,3,6,7,8,11,12,13,14,15,16,17-dodecahydro-1H-cyclopenta[a]phenanthren-17-yl)oxy)hexyl)piperazine-1-carboxylate] | – | 10 to 100 nM | 10 to 100 nM | 101 to 1000 nM | – | – | 10 to 100 nM | 101 to 1000 nM
5 | CC[C@@]1(O)C(=O)OCc2c1cc1n(c2=O)Cc2cc3c(CN4CCN(CC5CCN(c6ccc(C(=O)N[C@H]7CC[C@H](Oc8ccc(C#N)c(Cl)c8C)CC7)nn6)CC5)CC4)c(O)ccc3nc2-1 [Compound 26, N-((1r,4r)-4-(3-Chloro-4-cyano-2-methylphenoxy)cyclohexyl)-6-(4-((4-(((S)-4-ethyl-4,9-dihydroxy-3,14-dioxo-3,4,12,14-tetrahydro-1H-pyrano[3′,4′:6,7]indolizino[1,2-b]quinolin-10-yl)methyl)piperazin-1-yl)methyl)piperidin-1-yl)pyridazine-3-carboxamide Formate] | < 10 nM | 10 to 100 nM | < 10 nM | > 1000 nM | > 1000 nM | > 1000 nM | – | –
6 | CC[C@@]1(O)C(=O)OCc2c1cc1n(c2=O)Cc2cc3c(CN4CCN(C(=O)CCCCCC5CCN(c6ccc(C(=O)N[C@H]7CC[C@H](N(C)c8ccc(C#N)c(Cl)c8)CC7)nn6)CC5)CC4)c(O)ccc3nc2-1 [Compound No. 49] | 10 to 100 nM | 10 to 100 nM | 10 to 100 nM | > 1000 nM | – | – | – | > 1000 nM
7 | CC[C@@]1(O)C(=O)OCc2c1cc1n(c2=O)Cc2cc3c(CN4CCN(C(=O)CCCCCC5CCN(c6ccc(C(=O)N[C@H]7CC[C@H](Oc8ccc(C#N)c(Cl)c8C)CC7)nn6)CC5)CC4)c(O)ccc3nc2-1 [Compound No. 50] | 10 to 100 nM | 10 to 100 nM | 10 to 100 nM | > 1000 nM | – | – | – | 101 to 1000 nM
8 | CC[C@@]1(O)C(=O)OCc2c1cc1n(c2=O)Cc2cc3c(CN4CCN(C(=O)CCCCCC5CCN(c6ccc(C(=O)N[C@H]7CC[C@H](N(C)c8ccc(C#N)c(Cl)c8)CC7)nn6)CC5)CC4)cccc3nc2-1 [Compound 43] | 101 to 1000 nM | 101 to 1000 nM | 10 to 100 nM | > 1000 nM | – | – | – | > 1000 nM

— patent US20260102501A1, “ANTI-CANCER NUCLEAR HORMONE RECEPTOR-TARGETING COMPOUNDS” (Nuvation Bio Inc., priority 2022, published 2026)
